Experimental data taken from publication PMC4441267.

Experiment: RuAAC macrocyclisation of azide/terminal alkyne linear peptidomimetics to 1,5-triazole ([Cp*RuCl]4 0.1 eq, Ar-degassed), then Boc removal (TMSCl/MeOH GP4 or HCl/dioxane GP5)
Settings: toluene (reflux), 1.25 mM, 111.0 °C, 18.0 h, 2 steps

COC(=O)[C@@H]1CCCn2nncc2CCC(=O)NC[C@H](N)C(=O)N1 [Boc-Dap(4-pentynoyl)-Orn(N3)-OMe]
ring closure, yield over several steps (from C#CCCC(=O)NC[C@H](NC(=O)OC(C)(C)C)C(=O)N[C@@H](CCCN=[N+]=[N-])C(=O)OC, 14-membered ring): 99%

COC(=O)[C@@H]1CNC(=O)[C@H](Cc2ccccc2)n2nncc2CCCC(=O)NCC[C@H](N)C(=O)N1 [Boc-Dab(5-hexynoyl)-Dap(N3-Phe)-OMe]
ring closure, yield over several steps (from C#CCCCC(=O)NCC[C@H](NC(=O)OC(C)(C)C)C(=O)N[C@@H](CNC(=O)[C@H](Cc1ccccc1)N=[N+]=[N-])C(=O)OC, 17-membered ring): 99%

COC(=O)[C@@H]1CCCCNC(=O)[C@H](Cc2ccccc2)n2nncc2CCCC(=O)NCC[C@H](N)C(=O)N1 [Boc-Dab(5-hexynoyl)-Lys(N3-Phe)-OMe]
ring closure, yield over several steps (from C#CCCCC(=O)NCC[C@H](NC(=O)OC(C)(C)C)C(=O)N[C@@H](CCCCNC(=O)[C@H](Cc1ccccc1)N=[N+]=[N-])C(=O)OC, 20-membered ring): 87%

COC(=O)[C@@H]1Cc2ccc(cc2)-n2nncc2CCC(=O)NC[C@H](N)C(=O)N1 [Boc-Dap(4-pentynoyl)-Phe(4-N3)-OMe]
ring closure, yield over several steps (from C#CCCC(=O)NC[C@H](NC(=O)OC(C)(C)C)C(=O)N[C@@H](Cc1ccc(N=[N+]=[N-])cc1)C(=O)OC, 16-membered ring): 33%

COC(=O)[C@@H]1CCCCn2nncc2CCC(=O)NCCCC[C@H](N)C(=O)N1 [Boc-Lys(4-pentynoyl)-Lys(N3)-OMe]
ring closure, yield over several steps (from C#CCCC(=O)NCCCC[C@H](NC(=O)OC(C)(C)C)C(=O)N[C@@H](CCCCN=[N+]=[N-])C(=O)OC, 18-membered ring): 37%

COC(=O)[C@@H]1CNC(=O)[C@H](Cc2ccccc2)n2nncc2CCC(=O)NCC[C@H](N)C(=O)N1 [Boc-Dab(4-pentynoyl)-Dap(N3-Phe)-OMe]
ring closure, yield over several steps (from C#CCCC(=O)NCC[C@H](NC(=O)OC(C)(C)C)C(=O)N[C@@H](CNC(=O)[C@H](Cc1ccccc1)N=[N+]=[N-])C(=O)OC, 16-membered ring): 60%

COC(=O)[C@@H]1CCCCn2nncc2CNC(=O)NCCCC[C@H](N)C(=O)N1 [Boc-Lys(CONH-propargyl)-Lys(N3)-OMe]
ring closure, yield over several steps (from C#CCNC(=O)NCCCC[C@H](NC(=O)OC(C)(C)C)C(=O)N[C@@H](CCCCN=[N+]=[N-])C(=O)OC, 18-membered ring): 99%

COC(=O)[C@@H]1CCCCNC(=O)[C@H](Cc2ccccc2)n2nncc2CNC(=O)NC[C@H](N)C(=O)N1 [Boc-Dap(CONH-propargyl)-Lys(N3-Phe)-OMe]
ring closure, yield over several steps (from C#CCNC(=O)NC[C@H](NC(=O)OC(C)(C)C)C(=O)N[C@@H](CCCCNC(=O)[C@H](Cc1ccccc1)N=[N+]=[N-])C(=O)OC, 18-membered ring): 38%

COC(=O)[C@@H]1CCCn2nncc2CNC(=O)NCCCC[C@H](N)C(=O)N1 [Boc-Lys(CONH-propargyl)-Orn(N3)-OMe]
ring closure, yield over several steps (from C#CCNC(=O)NCCCC[C@H](NC(=O)OC(C)(C)C)C(=O)N[C@@H](CCCN=[N+]=[N-])C(=O)OC, 17-membered ring): 99%

COC(=O)[C@@H]1Cc2ccc(cc2)-n2nncc2CNC(=O)NCCC[C@H](N)C(=O)N1 [Boc-Orn(CONH-propargyl)-Phe(4-N3)-OMe]
ring closure, yield over several steps (from C#CCNC(=O)NCCC[C@H](NC(=O)OC(C)(C)C)C(=O)N[C@@H](Cc1ccc(N=[N+]=[N-])cc1)C(=O)OC, 18-membered ring): 46%

COC(=O)[C@@H]1CCCn2nncc2CNC(=O)NCC[C@H](N)C(=O)N1 [Boc-Dab(CONH-propargyl)-Orn(N3)-OMe]
ring closure, yield over several steps (from C#CCNC(=O)NCC[C@H](NC(=O)OC(C)(C)C)C(=O)N[C@@H](CCCN=[N+]=[N-])C(=O)OC, 15-membered ring): 99%

COC(=O)[C@@H]1CCCn2nncc2CCCC(=O)NC[C@H](N)C(=O)N1 [Boc-Dap(5-hexynoyl)-Orn(N3)-OMe]
ring closure, yield over several steps (from C#CCCCC(=O)NC[C@H](NC(=O)OC(C)(C)C)C(=O)N[C@@H](CCCN=[N+]=[N-])C(=O)OC, 15-membered ring): 99%

COC(=O)[C@@H]1CNC(=O)[C@H](Cc2ccccc2)n2nncc2CCC(=O)NC[C@H](N)C(=O)N1 [Boc-Dap(4-pentynoyl)-Dap(N3-Phe)-OMe]
ring closure, yield over several steps (from C#CCCC(=O)NC[C@H](NC(=O)OC(C)(C)C)C(=O)N[C@@H](CNC(=O)[C@H](Cc1ccccc1)N=[N+]=[N-])C(=O)OC, 15-membered ring): 89%

COC(=O)[C@@H]1CCCn2nncc2CCCC(=O)NCCCC[C@H](N)C(=O)N1 [Boc-Lys(5-hexynoyl)-Orn(N3)-OMe]
ring closure, yield over several steps (from C#CCCCC(=O)NCCCC[C@H](NC(=O)OC(C)(C)C)C(=O)N[C@@H](CCCN=[N+]=[N-])C(=O)OC, 18-membered ring): 99%

COC(=O)[C@@H]1CCCCNC(=O)[C@H](Cc2ccccc2)n2nncc2CNC(=O)NCCC[C@H](N)C(=O)N1 [Boc-Orn(CONH-propargyl)-Lys(N3-Phe)-OMe]
ring closure, yield over several steps (from C#CCNC(=O)NCCC[C@H](NC(=O)OC(C)(C)C)C(=O)N[C@@H](CCCCNC(=O)[C@H](Cc1ccccc1)N=[N+]=[N-])C(=O)OC, 20-membered ring): 56%

COC(=O)[C@@H]1Cc2ccc(cc2)-n2nncc2CCC(=O)NCCC[C@H](N)C(=O)N1 [Boc-Orn(4-pentynoyl)-Phe(4-N3)-OMe]
ring closure, yield over several steps (from C#CCCC(=O)NCCC[C@H](NC(=O)OC(C)(C)C)C(=O)N[C@@H](Cc1ccc(N=[N+]=[N-])cc1)C(=O)OC, 18-membered ring): 62%

COC(=O)[C@@H]1CNC(=O)[C@H](Cc2ccccc2)n2nncc2CNC(=O)NCCC[C@H](N)C(=O)N1 [Boc-Orn(CONH-propargyl)-Dap(N3-Phe)-OMe]
ring closure, yield over several steps (from C#CCNC(=O)NCCC[C@H](NC(=O)OC(C)(C)C)C(=O)N[C@@H](CNC(=O)[C@H](Cc1ccccc1)N=[N+]=[N-])C(=O)OC, 17-membered ring): 86%

COC(=O)[C@@H]1CCCCNC(=O)[C@H](Cc2ccccc2)n2nncc2CNC(=O)NCCCC[C@H](N)C(=O)N1 [Boc-Lys(CONH-propargyl)-Lys(N3-Phe)-OMe]
ring closure, yield over several steps (from C#CCNC(=O)NCCCC[C@H](NC(=O)OC(C)(C)C)C(=O)N[C@@H](CCCCNC(=O)[C@H](Cc1ccccc1)N=[N+]=[N-])C(=O)OC, 21-membered ring): 81%

COC(=O)[C@@H]1CNC(=O)[C@H](Cc2ccccc2)n2nncc2CCC(=O)NCCC[C@H](N)C(=O)N1 [Boc-Orn(4-pentynoyl)-Dap(N3-Phe)-OMe]
ring closure, yield over several steps (from C#CCCC(=O)NCCC[C@H](NC(=O)OC(C)(C)C)C(=O)N[C@@H](CNC(=O)[C@H](Cc1ccccc1)N=[N+]=[N-])C(=O)OC, 17-membered ring): 93%

COC(=O)[C@@H]1CCCCNC(=O)[C@H](Cc2ccccc2)n2nncc2CCC(=O)NCCC[C@H](N)C(=O)N1 [Boc-Orn(4-pentynoyl)-Lys(N3-Phe)-OMe]
ring closure, yield over several steps (from C#CCCC(=O)NCCC[C@H](NC(=O)OC(C)(C)C)C(=O)N[C@@H](CCCCNC(=O)[C@H](Cc1ccccc1)N=[N+]=[N-])C(=O)OC, 20-membered ring): 97%

COC(=O)[C@@H]1CNC(=O)[C@H](Cc2ccccc2)n2nncc2CNC(=O)NCCCC[C@H](N)C(=O)N1 [Boc-Lys(CONH-propargyl)-Dap(N3-Phe)-OMe]
ring closure, yield over several steps (from C#CCNC(=O)NCCCC[C@H](NC(=O)OC(C)(C)C)C(=O)N[C@@H](CNC(=O)[C@H](Cc1ccccc1)N=[N+]=[N-])C(=O)OC, 18-membered ring): 96%

COC(=O)[C@@H]1CCCn2nncc2CNC(=O)NCCC[C@H](N)C(=O)N1 [Boc-Orn(CONH-propargyl)-Orn(N3)-OMe]
ring closure, yield over several steps (from C#CCNC(=O)NCCC[C@H](NC(=O)OC(C)(C)C)C(=O)N[C@@H](CCCN=[N+]=[N-])C(=O)OC, 16-membered ring): 99%

COC(=O)[C@@H]1CCCCn2nncc2CCCC(=O)NC[C@H](N)C(=O)N1 [Boc-Dap(5-hexynoyl)-Lys(N3)-OMe]
ring closure, yield over several steps (from C#CCCCC(=O)NC[C@H](NC(=O)OC(C)(C)C)C(=O)N[C@@H](CCCCN=[N+]=[N-])C(=O)OC, 16-membered ring): 99%

COC(=O)[C@@H]1Cc2ccc(cc2)-n2nncc2CNC(=O)NC[C@H](N)C(=O)N1 [Boc-Dap(CONH-propargyl)-Phe(4-N3)-OMe]
ring closure, yield over several steps (from C#CCNC(=O)NC[C@H](NC(=O)OC(C)(C)C)C(=O)N[C@@H](Cc1ccc(N=[N+]=[N-])cc1)C(=O)OC, 16-membered ring): 27%

COC(=O)[C@@H]1CCCCn2nncc2CCC(=O)Nc2ccc(cc2)C[C@H](N)C(=O)N1 [Boc-Phe(4-NH-4-pentynoyl)-Lys(N3)-OMe]
ring closure, yield over several steps (from C#CCCC(=O)Nc1ccc(C[C@H](NC(=O)OC(C)(C)C)C(=O)N[C@@H](CCCCN=[N+]=[N-])C(=O)OC)cc1, 19-membered ring): 71%

COC(=O)[C@@H]1CCCn2nncc2CCCC(=O)NCCC[C@H](N)C(=O)N1 [Boc-Orn(5-hexynoyl)-Orn(N3)-OMe]
ring closure, yield over several steps (from C#CCCCC(=O)NCCC[C@H](NC(=O)OC(C)(C)C)C(=O)N[C@@H](CCCN=[N+]=[N-])C(=O)OC, 17-membered ring): 99%
